Test system: GA-primed murine splenocytes
Assay: ANOVA-based pattern identification method
Assay type: cell-based, mouse
Description: We sought to identify probes matching specific patterns of expression across experimental conditions using a technique that referred to as the ANOVA-based Pattern Identification Method.
To carry out the analysis in a general manner, we computed the 6 p-values required to do pairwise comparisons of all 4 conditions for all probes using the ANOVA1 function in MATLAB. We then identified sets of probes matching the desired pattern. In the example above, probes were identified as being only affected by PG if their 6 pairwise comparison pvalues matched the following pattern (pGA-PG<0.05, pPG-reference standard<0.05, pPG-Medium<0.05, pGAMedium>0.05, pGA-reference standard>0.05, preference standard-Medium>0.05).

[1] = DOWN IN generic ONLY, group mean

glatiramer acetate [GA]
PARP11 expression [1]: 5.609
PAX6 expression [1]: 5.641
PCSK2 expression [1]: 5.653
PDK2 expression [1]: 5.937
PHIP expression [1]: 8.192
PMS1 expression [1]: 5.806
PRICKLE2 expression [1]: 5.859
PTP4A2 expression [1]: 8.952
PTPN22 expression [1]: 5.804
R3HDM1 expression [1]: 6.229
RAB4A expression [1]: 6.851
RAB6B expression [1]: 5.767
RAB27A expression [1]: 9.622
RBM18 expression [1]: 7.292
RDH1 expression [1]: 5.682
RGS19 expression [1]: 6.584
RHBDF2 expression [1]: 6.336
RNF17 expression [1]: 5.538
RNF150 expression [1]: 5.93
RPL32 expression [1]: 13.81
RTN3 expression [1]: 5.897
RgenericRIP1 expression [1]: 5.935
SCNN1B expression [1]: 5.616
SEC1 expression [1]: 5.75
SEMA3E expression [1]: 5.601
SH3BP2 expression [1]: 10.95
SOX2 expression [1]: 5.674
SPCS2 expression [1]: 5.97
SPDYB expression [1]: 5.641
SPN expression [1]: 5.889
SPRR2K expression [1]: 5.662
STAT4 expression [1]: 5.836
SVNGR4 expression [1]: 5.647
SYT10 expression [1]: 5.717
TATDN3 expression [1]: 5.694
TCFAP2C expression [1]: 5.821
TDH expression [1]: 5.601
TMEFF2 expression [1]: 5.65
TMEM146 expression [1]: 6.132
TMPO expression [1]: 8.533
TRPM1 expression [1]: 5.694
TRPV3 expression [1]: 5.597
TSC1 expression [1]: 5.984
TSSC1 expression [1]: 7.729
TYKI expression [1]: 7.673
UGDH expression [1]: 5.86
UGT2A1 expression [1]: 5.61
UTX expression [1]: 9.817
V1RD9 expression [1]: 5.697
ZAP70 expression [1]: 7.106
ZBTB44 expression [1]: 5.642
ZCCHC11 expression [1]: 5.935
ZFP120 expression [1]: 5.536
ZFP212 expression [1]: 6.401
ZSCAN2 expression [1]: 5.813
control_ILMN_1378612 expression [1]: 5.7
control_ILMN_1378679 expression [1]: 5.604
control_ILMN_1378774 expression [1]: 5.707
control_ILMN_1378775 expression [1]: 5.662
control_ILMN_1379152 expression [1]: 5.629
control_ILMN_1379205 expression [1]: 5.72
genericC expression [1]: 5.676
USP47 expression (DOWN IN generic ONLY, group mean, first USP47 line): 6.068
USP47 expression (DOWN IN generic ONLY, group mean, second USP47 line): 6.377
1700025G04RIK expression level (UP IN GA AND REF ONLY): 7.268
1700027N10RIK expression level (UP IN GA AND REF ONLY): 6.448
1810013L24RIK expression level (UP IN GA AND REF ONLY): 7.658
2310016C16RIK expression level (UP IN GA AND REF ONLY): 5.823
2500002A22RIK expression level (UP IN GA AND REF ONLY): 6.674
2610017G09RIK expression level (UP IN GA AND REF ONLY): 5.839
2810008M24RIK expression level (UP IN GA AND REF ONLY): 9.714
2810410P22RIK expression level (UP IN GA AND REF ONLY): 7.979
3202002H23RIK expression level (UP IN GA AND REF ONLY): 6.527
4930404F20RIK expression level (UP IN GA AND REF ONLY): 6.759
4930422G04RIK expression level (UP IN GA AND REF ONLY): 5.79
4930539E08RIK expression level (UP IN GA AND REF ONLY): 6.255
4932413O14RIK expression level (UP IN GA AND REF ONLY): 5.732
5830457O10RIK expression level (UP IN GA AND REF ONLY): 6.825
8030402P03RIK expression level (UP IN GA AND REF ONLY): 7.776
9430077D24RIK expression level (UP IN GA AND REF ONLY): 7.091
A630098G22RIK expression level (UP IN GA AND REF ONLY): 7.124
A830083H19RIK expression level (UP IN GA AND REF ONLY): 7.635
A930014D08RIK expression level (UP IN GA AND REF ONLY): 5.703
ACTN4 expression level (UP IN GA AND REF ONLY): 6.609
ALS2CL expression level (UP IN GA AND REF ONLY): 7.393
AP1B1 expression level (UP IN GA AND REF ONLY): 10.95
ARHGAP25 expression level (UP IN GA AND REF ONLY): 10.16
ARL1 expression level (UP IN GA AND REF ONLY): 9.913
ARL5A expression level (UP IN GA AND REF ONLY): 8.028
BAT2D expression level (UP IN GA AND REF ONLY): 5.932
BAZ1B expression level (UP IN GA AND REF ONLY): 5.676
BCL11B expression level (UP IN GA AND REF ONLY): 7.609
C130079K02RIK expression level (UP IN GA AND REF ONLY): 7.532
C920025C15RIK expression level (UP IN GA AND REF ONLY): 6.929
CBFB expression level (UP IN GA AND REF ONLY): 6.648
CCR4 expression level (UP IN GA AND REF ONLY): 5.821
CD226 expression level (UP IN GA AND REF ONLY): 6.995
CHIC2 expression level (UP IN GA AND REF ONLY): 8.484
CLCN3 expression level (UP IN GA AND REF ONLY): 8.431
COX7A1 expression level (UP IN GA AND REF ONLY): 7.161
CSF1 expression level (UP IN GA AND REF ONLY): 5.383
CXCR6 expression level (UP IN GA AND REF ONLY): 6.834
CYB5 expression level (UP IN GA AND REF ONLY): 11.21
D4ERTD22E expression level (UP IN GA AND REF ONLY): 11.37
D6WSU163E expression level (UP IN GA AND REF ONLY): 6.582
D230021E06RIK expression level (UP IN GA AND REF ONLY): 7.605
D630011N09RIK expression level (UP IN GA AND REF ONLY): 5.625
D630022O22RIK expression level (UP IN GA AND REF ONLY): 6.33
DCK expression level (UP IN GA AND REF ONLY): 6.716
DCUN1D5 expression level (UP IN GA AND REF ONLY): 9.535
DHX32 expression level (UP IN GA AND REF ONLY): 8.979
DMBT1 expression level (UP IN GA AND REF ONLY): 5.787
DTYMK expression level (UP IN GA AND REF ONLY): 10.17
EG386506 expression level (UP IN GA AND REF ONLY): 5.743
EG666756 expression level (UP IN GA AND REF ONLY): 10.78
EIF3B expression level (UP IN GA AND REF ONLY): 6.383
EIF4E3 expression level (UP IN GA AND REF ONLY): 8.882
ELAC2 expression level (UP IN GA AND REF ONLY): 6.351
ELF1 expression level (UP IN GA AND REF ONLY): 10.44
EP5TI1 expression level (UP IN GA AND REF ONLY): 8.281
ETS1 expression level (UP IN GA AND REF ONLY): 7.811
F830048D03RIK expression level (UP IN GA AND REF ONLY): 6.799
FANCA expression level (UP IN GA AND REF ONLY): 5.606
FBXO33 expression level (UP IN GA AND REF ONLY): 8.898
FEM1C expression level (UP IN GA AND REF ONLY): 8.076
FERD3L expression level (UP IN GA AND REF ONLY): 5.887
